Data as given in paper PMC10050424, “Structural basis of the substrate recognition and inhibition mechanism of Plasmodium falciparum nucleoside transporter PfENT1” (Nature Communications, 2023).
Where “and” joins values, the source holds several entries; their conditions need not be identical. Equal values may be shown once.

Experiments:
[1] = molecular target: T1, PfENT1WT (Plasmodium falciparum, UniProt Q8IDM6); experiment: biochemical; type: binding
T1 construct: 10xHis (N); made in house; host or cells: Sf9 insect cells (baculovirus)
Method: For the in vitro binding assay, Sf9 cells were solubilized in lysis buffer containing 2% (w/v) n-dodecyl-β-D-maltopyranoside (DDM, Anatrace) and protease inhibitor cocktail (0.8 μM aprotinin, 2 μM pepstatin, and 5 μg/ml leupeptin) at 4 °C for 2 h. The soluble supernatant was collected via centrifugation and incubated with Ni-NTA resin (QIAGEN) at 4 °C for 1 h. The resin was washed and eluted using lysis buffer containing 0.05% (w/v) DDM and 30 mM/300 mM imidazole. The protein was further purified by size-exclusion chromatography (Superdex 200 Increase 10/300; GE Healthcare) in buffer containing 25 mM MES (pH 6.0), 150 mM NaCl, and 0.05% (w/v) DDM. The peak fractions were pooled and concentrated to 10~50 μM for the nucleoside-binding assay.
The binding affinity between wild-type and mutant PfENT1 with nucleosides and GSK4 was measured using a Micro-Cal ITC200 (Malvern). All proteins were prepared in 25 mM MES (pH 6.0), 150 mM NaCl, and 0.05% (w/v) DDM. Nucleosides (5~10 mM) and GSK4 (100-200 μM) dissolved in the same buffer were titrated against 20–50 μM PfENT1 proteins at 25 °C. PEAQ-ITC analysis software (MicroCal) was employed to analyze the data. All titrations were repeated three times.

[2] = molecular target: T2, PfENT1 (Plasmodium falciparum, UniProt Q8IDM6); experiment: cell-based; type: cell-based; details: uptake without competitor set as 100%, Fig. 1c; for remaining activity at 5000 µM: 0.5 h, read-out: Uptake of [3H]-inosine (Percentage of PfENT1 WT), competition by nonradioactive nucleoside/nucleobase 5 mM, 30 min, 30 °C; for Uptake of [3H]-inosine (Percentage of PfENT1 WT): competition by nonradioactive nucleoside/nucleobase 5 mM, 30 min, 30 °C
T2 construct: expressed in transfected cells; host or cells: S. cerevisiae BY4741, FUI1 deleted, PfENT1 knock-in under the TEF1 promoter
Method: The S. cerevisiae strain (ATCC, #201388) BY4741 (MATa his3Δ1 leu2Δ0 met15Δ0 ura3Δ0) was used as the starting yeast strain. Yeast strains were cultured in YPD medium (20 g/L peptone, 10 g/L yeast extract, and 20 g/L dextrose). The antibiotic G418 was supplemented at a concentration of 250 μg/mL to select strains carrying the KanMX marker. E. coli DH5α was used for subcloning.
Codon-optimized PfENT1 (for expression in yeast) was synthesized by Sangon Biotech. The carboxyl terminus of PfENT1 was HA-tagged through PCR. The TEF1p promoter and PGK1t terminator were amplified from BY4741 genomic DNA. Overlap PCR was applied to generate the gene overexpression cassette of PfENT1 (TEF1p promoter-PfENT1-PGK1t terminator). The two 600-bp homologous arms corresponding to the upstream and downstream regions of the FUI1 gene were amplified from BY4741 genomic DNA. The gene cassette of the ‘TEF1p promoter-PfENT1-PGK1t terminator’ together with the two homologous arms was cloned into the PUC19 plasmid through Gibson assembly, generating the final plasmid PUC19: PfENT1. PfENT1 mutations were generated using point mutation and verified by Sanger sequencing. The spacer targeting the FUI1 gene (5ʹ-[…]-3ʹ) was cloned into the pCas-BsaI plasmid to generate the pCas-FUI1 plasmid as described previously.
To obtain fui1Δ and PfENT1 (or its mutations) overexpression in the S. cerevisiae strain, 1 μg pCas-FUI1 plasmid and 15 μg PUC19:PfENT1 were transformed into yeast using the LiAc/ssDNA/PEG method. Then, the strains were plated on a YPD plate supplemented with G418. Clones were screened using PCR and finally verified through Sanger sequencing.
Cells were grown overnight in YPD medium to mid-log phase and harvested by centrifugation at 3000 × g for 5 min. Cells were washed three times in 2% glucose. The yeast pellets were resuspended in uptake assay buffer (25 mM Tris-HCl 8.0,150 mM NaCl, 2% glucose) to a final concentration of 2 × 10^8 cells mL^–1. The uptake assay was initiated by combining 100 μL of prewarmed (30 °C) cells and 100 μL uptake assay buffer mixture: 25 mM Tris-HCl 8.0, 150 mM NaCl, 2% glucose, 200 nM [^3H] Inosine ([8-^3H] inosine; 20 Ci mmol^–1, American Radiolabeled Chemicals). Cells were removed onto a membrane filter at the appropriate times to generate the time course. After washing by vacuum filtration with 2 ml ice-cold 2% glucose, the radioactivity retained on the filter was incubated with 1 mL of ULTIMA GOLD scintillation fluid (Perkin Elmer, 77-15311). Counts were measured using a liquid scintillation analyzer (Perkin Elmer, Tri-Carb 5110TR).
For competition assays, the indicated nucleosides and nucleobase were added into the external uptake assay buffer (25 mM Tris-HCl 8.0, 150 mM NaCl, and 2% glucose) to a final concentration of 5 mM, and the transport reaction was stopped at 30 min. The reading of the competition assays was normalized against the one without a competitor, which had the uptake of radiolabeled inosine set as 100%. All uptake assays were performed at 30 °C and repeated three times. Error bars represent the s.d. The final result was analyzed in the GraphPad Prism 8 software ([…]).

[3] = ITC, 25 °C, pH 6.0, mean ± SD (n = 3), Fig. 1a and text

T1 sequence (Q8IDM6 whole entry): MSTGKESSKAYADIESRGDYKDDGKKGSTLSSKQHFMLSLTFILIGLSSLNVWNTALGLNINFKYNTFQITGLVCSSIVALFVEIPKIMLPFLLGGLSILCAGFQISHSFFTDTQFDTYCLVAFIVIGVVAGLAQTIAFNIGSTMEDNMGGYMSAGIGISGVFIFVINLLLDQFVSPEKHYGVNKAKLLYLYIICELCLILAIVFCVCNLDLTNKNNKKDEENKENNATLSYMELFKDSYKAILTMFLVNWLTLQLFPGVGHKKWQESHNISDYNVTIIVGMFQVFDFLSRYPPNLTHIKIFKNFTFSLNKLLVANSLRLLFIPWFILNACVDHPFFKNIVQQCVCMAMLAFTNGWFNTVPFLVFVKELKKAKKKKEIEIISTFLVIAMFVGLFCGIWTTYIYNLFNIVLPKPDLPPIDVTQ
T2 sequence (Q8IDM6 whole entry): as above

Row | Structure (SMILES) | Kd ([1]; Kd, Mean and Mean ± SD, source data Figure 1a) [µM] | Kd ([1]; Kd, N=3 (individual experiments), source data Figure 1a) | Kd ([1]; binding affinity (Kd), ITC, 25 °C, pH 6.0, mean ± SD (n = 3), Fig. 1a and text) | remaining activity at 5000 µM [2] [%] | Uptake of [3H]-inosine (Percentage of PfENT1 WT) [2] | binding affinity (Kd) [1, 3] | Uptake of [3H]-inosine (Percentage of PfENT1 WT) ([2]; listed as thymidine)
1 | Nc1nc2c(ncn2[C@@H]2O[C@H](CO)[C@@H](O)[C@H]2O)c(=O)[nH]1 [Guanosine, guanosine] | 186 | 172 µM and 179 µM and 207 µM | ~186 µM and 186 µM | 10 | abolished |  | 
2 | Nc1ncnc2c1ncn2[C@@H]1O[C@H](CO)[C@@H](O)[C@H]1O [Adenosine, adenosine] |  |  |  | 18 | relatively lower than that of inosine and guanosine |  | 
3 | O=c1ccn([C@@H]2O[C@H](CO)[C@@H](O)[C@H]2O)c(=O)[nH]1 [Uridine, uridine] |  |  |  | 81 | partially reduce inosine uptake | undetectable | 
4 | Nc1ccn([C@@H]2O[C@H](CO)[C@@H](O)[C@H]2O)c(=O)n1 [Cytidine, cytidine] |  |  |  |  | did not influence inosine uptake | undetectable | 
5 | Cc1cn([C@H]2C[C@H](O)[C@@H](CO)O2)c(=O)[nH]c1=O [Thymidine, thymidine] |  |  |  | 42 | 41% | undetectable | partially reduce inosine uptake
6 | O=c1[nH]cnc2nc[nH]c12 [Hypoxanthine, hypoxanthine] |  |  |  | 23 | partial inhibition | undetectable | 
